Experimental data published in a melting point compilation (Tetko et al.; mined from patent text by program, amines drawn as free bases though some values may be those of a salt).

melting point	Compound
104 to 105 °C	CC(C)c1ccc(Oc2ccc(C(=O)c3ccc(Oc4ccc(C(C)C)cc4)cc3)cc2)cc1
105 to 108 °C	CC(C)CCOc1ccc(OCn2cnc(Cl)c2Cl)cc1
180 °C	O=C(C=Cc1cccc(S(=O)(=O)Nc2cccc3ccccc23)c1)NO
112 to 114 °C	Oc1ccc(CCNCC(O)c2ccccn2)cc1 (racemic)
179 °C	Cn1ncnc1COc1nc2c(-c3ccccc3)nncn2c1-c1ccccc1
263 to 264 °C	O=C(O)C1=Cc2cc(-c3ccc(Cl)cc3)ccc2OCC1
254 °C	c1ccc(-c2ccc3c(ccc4c5ccccc5[nH]c34)c2)cc1
83 to 85 °C	Cc1cccc(-c2[nH]c(C(C)C)nc2-c2cccc(-c3ccsc3)c2)n1
190 to 193 °C	Nc1ccc(-c2ccc3nnn(Cc4ccc5ncccc5c4)c3n2)cc1
140 to 142 °C	CCc1ccc(CCOc2cccc(NC3SC(=O)NC3=O)c2)nc1 (stereo unspecified)
235 to 237 °C	CN=C(C1=C(O)C(=O)c2ccccc2C1=O)c1ccccc1
93 to 94 °C	OCc1cn(-c2ccccc2)nc1OCc1ccccc1
208 to 209 °C	CS(=O)(=O)Nc1cc(NC(=O)CN2C(=O)c3ccccc3C2=O)ccc1Oc1ccccc1
87 to 88 °C	CCOc1nn(-c2ccc(C(F)(F)F)cn2)cc1CCCOc1c(CCC(=O)O)cccc1OC
57 to 61 °C	CCOC(=O)CCCCCCOc1ccc(OCc2ccccc2)cc1
190 to 191 °C	N#Cc1cccc(CN2CCN(c3ccc(NC(=O)c4ccccc4OCc4ccc(C(F)(F)F)cc4)cc3)CC2)c1

melting point	Compound
236 to 238 °C	NS(=O)(=O)c1ccc(-c2cnn(Cc3ccc(F)cc3F)c(=O)c2-c2ccc(F)cc2)cc1
261 to 265 °C	O=C(O)c1ccc2c(c1)S(=O)c1ccccc1CC2 (stereo unspecified)
169 to 170 °C	O=C(O)COc1ccc2c(c1)-c1nc(S(=O)(=O)C(c3ccccc3)c3ccccc3)sc1CC2
147 to 148 °C	O=C(O)CCc1cn(Cc2ccc(OCc3ccccc3)cc2)nc1-c1ccccc1
166 to 167 °C	O=C(O)Cc1ccc2c(c1)C(=O)Cc1ccccc1S2
140 to 141 °C	Cc1nc(NC(=O)c2ccccc2OC(F)(F)F)sc1C(=O)NCc1ccccc1
132 to 135 °C	CC(C)c1cccc(C(C)C)c1OC(=O)NP(=O)(Oc1ccccc1)Oc1ccccc1
158 to 161 °C	COc1ccc(N(CC(=O)O)c2ccccc2)c(C(=O)O)c1
174 to 175 °C	Cc1oc(-c2ccccc2)nc1COc1ccc(C(=O)c2ccccc2OCC(=O)O)cc1
128 to 133 °C	CCc1nc(N)nc(N)c1CCCc1cccc(-c2ccccc2)c1
56 to 58 °C	CN(C)c1ccc(/C=C/c2ccccc2F)c2ccccc12
10 °C	CCCCC(Cc1cccnc1)(C(=O)OC(C)(C)C)S(=O)(=O)c1ccc(OC)cc1 (stereo unspecified)
260 to 261 °C	CC(=O)Nc1c(C(=O)c2ccccc2)[nH]c2ccc(NS(C)(=O)=O)cc12
86 to 88 °C	CC(=NOCCCOc1ccccc1)C(=O)O
201 to 202 °C	OCc1cc(O)cc(Nc2c3ccccc3nc3ccccc23)c1

More lines, now with the values behind:

Compound	melting point
O=C1c2ccc(Cl)cc2CC1(F)Br (stereo unspecified)	104 to 105 °C
Cc1c(C)c2c(c(C)c1NC(=O)CC(C)(C)C)C(c1ccccc1)CO2 (stereo unspecified)	146 to 147 °C
Cc1cnc2n(c1=O)CCC2	82 °C
NC(=O)[C@@H]1C[C@@H]2C[C@@H]2N1C(=O)[C@@H](NC(=O)OCc1ccccc1)C12CC3CC(CC(O)(C3)C1)C2	105 to 106 °C
Cc1cc(C#N)cc(Oc2[nH]c(=O)[nH]c(=O)c2C(C)C)c1	272 to 275 °C
CCCC(=Cc1cccs1)[N+](=O)[O-]	25 to 25.5 °C
CCCCn1c(=O)c2c(nc(C)n2S(=O)(=O)CCCCl)n(CCCC)c1=O	76 to 78 °C
CCCN1C(=O)/C(=C/c2c[nH]c3ncccc23)N=C1C	206 °C
Cc1cc(I)cc(C(=O)O)c1N	214 °C
O=C(c1ccc(Cl)cc1)c1ccc([N+](=O)[O-])cc1Cl	117 to 118 °C
CCOCc1cc(COc2cc(C)nc(C)c2OC)ccc1-c1ccccc1S(=O)(=O)Nc1noc(C)c1C	78 to 82 °C
O=C1Cc2cc(Br)ccc2O1	147 to 148 °C
CC(=NOCCO)c1ccc(-c2ccc(C(F)(F)F)cc2)cc1	108 to 111 °C
COC(=O)Cn1oc2cc(OC)ccc2c1=O	185 to 188 °C
CCCCCCCS(=O)(=O)c1ccc(N)cc1	91 to 92 °C
Cc1ccc2cccc(OCc3c(Cl)ccc(S(=O)(=O)N4CCC[C@H]4C(=O)N(C)CCNC(=O)OC(C)(C)C)c3Cl)c2n1	88 °C
O=C1CCCC(C(=O)c2ccc(Cc3ccc(F)cc3)o2)=C1O	133 to 134 °C
O=C1c2cc(O)ccc2OCC1Cc1nccs1 (stereo unspecified)	150 to 152 °C
CCOC1=C(C(=O)N(C)C)S(=O)(=O)N=C1N	221 to 223 °C
CCOC(=O)/C=C(\C)c1ccc(C2COc3c(C)c(C)c(NC(=O)CC(C)(C)C)c(C)c32)cc1 (stereo unspecified)	179 to 180 °C
O=[N+]([O-])c1c(-c2ccc(Cl)cc2)[nH]c(C(F)(F)F)c1-c1csc(Br)c1Br	241 to 242 °C
CN(C)C(=O)Nc1cc(Br)ccc1N1CCc2ccccc21	119 to 121 °C
COc1cc2ncc(C(N)=O)c(Nc3cccc(Br)c3)c2cc1OC	239 to 242 °C
COC(=O)NNc1cc(C)c(Cl)c2c1OC(C)C2 (stereo unspecified)	157 to 160 °C

Compound	melting point
CC(=O)Nc1cc(N(C)C)ccc1C1(c2ccc(N(C)C)cc2N(C)C)OC(=O)c2ccccc21 (stereo unspecified)	97 to 136 °C
CO/C=C(/C(=O)OC)c1ccccc1Oc1ncnc(Cl)n1	137 to 140 °C
CN(c1cccc2cc(C3=NCC(CCO)S3)[nH]c12)S(=O)(=O)c1cccs1 (stereo unspecified)	168 to 169 °C
CCOC(=O)c1cn(-c2cccc(OC)c2)cn1	95 to 96 °C
CCS(=O)(=O)C(=CNc1ccc(NC=C(S(=O)(=O)CC)S(=O)(=O)CC)cc1)S(=O)(=O)CC	265 to 268 °C
Cn1c(=O)ccc2cc(COc3cc(F)cc(C4(SC(C)(C)C)CCOCC4)c3)ccc21	54 to 56 °C
COc1ccc(CNC(=O)N2CCN(c3ncnc4cc(OC)c(OC)cc34)CC2)cc1	147 to 148 °C
C#CCOc1cc(C)nc(-c2cccc(CCC)n2)n1	92.5 °C
CCCCC1(c2cccc(O)c2)CCCCN(C)C1=O (stereo unspecified)	138 to 142 °C
COc1cc(C(=O)c2cccs2)cc([N+](=O)[O-])c1OC	102 to 104 °C
CNc1c(F)cc2c(=O)c(C(=O)O)cn(-c3cc(N)c(F)cc3F)c2c1C	225 to 228 °C
Nc1c([N+](=O)[O-])cc(Br)c2c1CCN(Cc1ccc(C(F)(F)F)cc1)C2	131 to 133 °C
CN(Cc1cc2c(=O)c(C(=O)NCc3ccc(Cl)cc3)cn(C)c2o1)CC(O)CSc1nnc(N)s1 (stereo unspecified)	200 to 204 °C
CCOC(=O)Nc1cc(C(=O)N(C)OC)c(Cl)cc1F	121 °C
COc1cc2sc(C=O)cc2c(Cl)c1OC	164 to 165 °C
Cc1cc(NC(=O)C(C)(O)COc2cccc(F)c2F)ccc1[N+](=O)[O-] (stereo unspecified)	68 to 73 °C
COC(=O)COc1ccc(C(=O)CNC=O)cc1	116 °C
COc1ccsc1C(=O)C1C(=O)N(C(N)=O)c2ccc(Cl)cc21 (stereo unspecified)	86 to 88 °C
COc1cc(C=C(C#N)C(N)=O)cc(OC)c1OC	128 to 130 °C
O=c1[nH]cnc2cc3c(cc12)OCCO3	275 °C
OCn1nnc2ccccc21	148 °C
C=CC[C@H]1C[C@@](OS(C)(=O)=O)(C(=O)OC)C[C@@H](OC(=O)c2ccccc2)[C@@H]1OS(C)(=O)=O	154 to 155 °C
CC1(C)OC(=O)C(Br)(CCn2cccc2C(=O)c2ccccc2)C(=O)O1	89 to 91 °C
O=C(O)C1=Cc2cc(Br)cc(Br)c2OC1C(F)(F)F (stereo unspecified)	225 to 226 °C

Compound	melting point
COc1cc(C(=O)Nc2ccc(S(=O)(=O)C(F)(F)F)cc2Cl)c(O)c(C(C)(C)C)c1	126 to 127 °C
N#CC1=CC(Br)=NC1(N)C#N (stereo unspecified)	> 210 °C
Cn1c(=O)cc(CC(=O)O)c2cc(C#N)ccc21	238 °C
CNc1ccc(C=Cc2ccc(N)cc2)cc1	144 to 145 °C
CCc1n[nH]c(CC)c1CCCCCCOc1ccc([N+](=O)[O-])cc1Cl	130 to 132 °C
CCCC(=O)c1ccccc1NC(C)=O	46.5 to 47 °C
COc1ccc(N(c2nc(N)nc(NC3CC3)n2)C2CC2)cc1F	91 to 92 °C
Cc1ccc(-c2cncc(/C=C/C(=O)O)c2)cc1	208 to 211 °C
C[C@@H](n1cnc2cc(N)c(F)cc2c1=O)[C@](O)(Cn1cncn1)c1ccc(F)cc1F	124 to 125 °C
O=C(Cn1cnc2cc(-c3ccc(Cl)cc3)sc2c1=O)c1ccc2c(c1)CCN(C(=O)C(F)(F)F)CC2	285 to 287 °C
Clc1ccc(-c2nc(Cl)cc(NCCN3CCOCC3)n2)cc1	127 to 129 °C
Cc1cnc(CNC(=O)c2sc(N3C[C@@H](C)N(Cc4cc(F)cc(F)c4)C3=O)nc2C)cn1	131 to 132 °C
COC1C=CC2C3Cc4ccc(O)c5c4C2(CCN3C)C1O5 (stereo unspecified)	242 to 243 °C
C[C@H]1c2ccccc2N(C(=O)CCl)[C@H]1C (relative stereo)	83 to 84 °C
O=c1ccn(-c2ccc3[nH]c(=O)c(=O)[nH]c3c2)cc1	> 300 °C
C=CCc1c(O)c(=O)[nH]c2cc(Cl)ccc2c1=O	172 to 174 °C
C=CCC(C(=O)O)c1ccccc1 (stereo unspecified)	34 °C
CCOC(=O)C1=C(C)NC(=O)N(C(=O)OCC)C1c1ccccc1[N+](=O)[O-] (stereo unspecified)	150 to 152 °C
CC(=O)NCC1CN=C(c2ccccc2F)c2cc(Cl)ccc2N1C(C)=O (stereo unspecified)	213 to 215 °C
CCOC(=O)N1CCN(c2nnc(N)[nH]2)CC1	196 to 198 °C
CCNC(=O)N=C(NC(=O)Nc1ccccc1C)SC	152 to 153 °C
CC1=C(/C=C/S(=O)(=O)NC(C)C)C(c2cccc([N+](=O)[O-])c2)C(C(=O)OCC(F)(F)F)=C(C)N1 (stereo unspecified)	180 to 182 °C
